The results in this text go back to patent US20250236607A1, “CYCLIN-DEPENDENT KINASE 9 (CDK9) DEGRADERS AND METHODS OF USING THEREOF” (OHIO STATE INNOVATION FOUNDATION, priority 2022, published 2025).

Series [1] can be described thus: Kinetic solubility assay. To be noted: for Solubility / solubility at 1.5 h: kinetic solubility, PBS pH 7.4; for solubility at 1.5 h: Solubility (μM).
A short description of series [2]: Chromatographic log D determination (log k′80). The series is classed as physicochemical. The conditions noted are these: chromatographic log D, PLRP-S column, pH 7.72. The protocol:
Chromatographic Log D Determination. Test samples were prepared from 10 mM stock solutions in DMSO, to make 122 μM solutions in acetonitrile. Retention times were determined on a Shimadzu High Performance Liquid Chromatography (HPLC) system with Agilent PLRP-S column, 100 Å, 5 um particle size, 50×4.6 mm (part no.: PL1512-1500) with 1 mL/min flow rate. A 65 mM aqueous solution of ammonium acetate was prepared in water and diluted with acetonitrile to give 0.1% ammonium acetate 20:80 acetonitrile solution with pH 7.72. Eluents were detected with UV spectrophotometry at 337 nm. As a standard set, the retention times of β-estradiol, nifedipine, quinoline, phenol and 2-nitrophenol were determined (log k′80) and the dead time was extrapolated based on the reported log k′80 values originally reported by Caron et. al (log k′80*). The average value of the dead time for the standard set was 0.3001 minutes. Therefore, for consistency, 0.3 minutes was used as the dead time for all test samples. Experiments were performed in triplicate with a maximum percent standard deviation of 6.85%.

Series [3] has as its target T1, CDK9 (Homo sapiens, UniProt P50750+Q96SW2).
T1 construct: endogenous in cells
The series is described as follows: CDK9 degradation potency (DC50) of VIP152-based degraders. To be noted: VIP152-based series. The series is classed as cell-based. The text has this: (§1) Through amide coupling using I-ethyl-3-carbodiimide hydrochloride (EDC.HCl), the alkynyl derivatives of 4.16, 4.29 and 4.30 were synthesized. Using these VIP152-derivatives, degraders 4.31, 4.33 and 4.34 were synthesized using click chemistry. Degrader 4.32 was also synthesized using amide coupling conditions with (1-[Bis([…])methylene]-1H-1,2,3-triazolo[4,5-b]pyridinium 3-oxide hexafluorophosphate (HATU) and the carboxylic acid 4.28. Scheme 7 illustrates the synthesis of this initial series. The series was evaluated for cytotoxicity against MOLM13 cells (IC50) and for their CDK9 degradation potency (DC50). The results are provided in Table 3.

The subject of series [4] is MOLM13 cells. The series is described as follows: Cytotoxicity against MOLM13 cells. The series is classed as cell-based. To be noted: MOLM13 cells, read-out: IC50.
From the text: as §1

Series [5] deals with MV411 cells. Put plainly: MTS cytotoxicity assay against MV411 cells. The series is classed as cell-based. To be noted: Homo sapiens, MV4-11. The protocol: The obtained compounds were tested in biological experiments to measure their potency in inhibiting the growth of AML cells and in their degradation of CDK9. These measurements are reported as half-maximum growth inhibitory and half-maximum degradation concentrations, IC50s and DC50s, respectively. Maximum percent degradation (Dmax) values were also obtained during the CDK9 degradation assessments. The common MTS assay was used to acquire the IC50 values, while the DC50 values were obtained using an automated western blot experiment. These values are presented in Table 2, along with pIC50 (log(nM IC50)) to more accurately reflect the differences/lack thereof in in vitro cytotoxicity. The notation “N:N*” represents the number of linker atoms on each side of the rigid triazole ring for a given degrader. Predicted log D values, calculated using the ChemAxon […], are also provided for each degrader. To characterize the physicochemical properties of the new degrader series, two additional assays were performed: a kinetic aqueous solubility assay and the chromatographic log D experiment described earlier. Aqueous solubility is shown in μM while experimentally determined log D is shown as log k′80. Details regarding the execution of each experiment are provided below.

The mark [6] stands for this setting: phosphate buffered saline, pH 7.4, aqueous buffer, kinetic from dmso stock.
[7] abbreviates: Homo sapiens, MOLM-13, cytotoxicity.

Converted amounts (≈) assume the structure as drawn. “And” between values parts separate entries of the source, which are not always exact repeats. Equal values may be shown once. Read-outs that look alike come from different tables or passages of the source.

T1 sequence (P50750 whole entry): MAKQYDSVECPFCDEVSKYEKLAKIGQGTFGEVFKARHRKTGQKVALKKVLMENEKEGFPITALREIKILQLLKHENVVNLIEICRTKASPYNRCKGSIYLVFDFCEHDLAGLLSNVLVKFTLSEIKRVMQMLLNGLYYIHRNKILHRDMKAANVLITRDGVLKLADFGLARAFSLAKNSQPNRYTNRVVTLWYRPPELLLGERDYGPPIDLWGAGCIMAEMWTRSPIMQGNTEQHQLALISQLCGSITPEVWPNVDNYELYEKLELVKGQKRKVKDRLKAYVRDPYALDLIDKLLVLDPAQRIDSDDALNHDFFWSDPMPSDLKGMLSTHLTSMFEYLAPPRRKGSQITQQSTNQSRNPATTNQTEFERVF
T1 sequence (O60563 whole entry partner): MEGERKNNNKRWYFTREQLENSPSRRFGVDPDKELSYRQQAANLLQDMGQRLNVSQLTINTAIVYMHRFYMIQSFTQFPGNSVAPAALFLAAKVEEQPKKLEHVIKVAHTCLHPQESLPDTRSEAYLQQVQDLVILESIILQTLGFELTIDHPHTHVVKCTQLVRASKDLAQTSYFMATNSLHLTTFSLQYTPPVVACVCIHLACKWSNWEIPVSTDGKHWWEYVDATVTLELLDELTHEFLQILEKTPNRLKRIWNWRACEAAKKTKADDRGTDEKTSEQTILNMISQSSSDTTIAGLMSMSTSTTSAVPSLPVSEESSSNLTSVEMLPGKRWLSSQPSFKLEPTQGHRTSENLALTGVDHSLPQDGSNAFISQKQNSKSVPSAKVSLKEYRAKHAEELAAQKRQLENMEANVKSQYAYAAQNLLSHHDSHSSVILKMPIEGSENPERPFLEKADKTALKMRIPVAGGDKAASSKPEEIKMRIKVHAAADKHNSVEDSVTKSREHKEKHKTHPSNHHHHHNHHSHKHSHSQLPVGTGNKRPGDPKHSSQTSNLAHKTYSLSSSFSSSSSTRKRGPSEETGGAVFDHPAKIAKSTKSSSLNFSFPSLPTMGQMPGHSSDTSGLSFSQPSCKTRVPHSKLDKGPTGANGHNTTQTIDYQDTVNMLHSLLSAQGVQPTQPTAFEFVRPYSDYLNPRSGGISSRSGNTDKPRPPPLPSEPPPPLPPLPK
T1 sequence (Q96SW2 whole entry): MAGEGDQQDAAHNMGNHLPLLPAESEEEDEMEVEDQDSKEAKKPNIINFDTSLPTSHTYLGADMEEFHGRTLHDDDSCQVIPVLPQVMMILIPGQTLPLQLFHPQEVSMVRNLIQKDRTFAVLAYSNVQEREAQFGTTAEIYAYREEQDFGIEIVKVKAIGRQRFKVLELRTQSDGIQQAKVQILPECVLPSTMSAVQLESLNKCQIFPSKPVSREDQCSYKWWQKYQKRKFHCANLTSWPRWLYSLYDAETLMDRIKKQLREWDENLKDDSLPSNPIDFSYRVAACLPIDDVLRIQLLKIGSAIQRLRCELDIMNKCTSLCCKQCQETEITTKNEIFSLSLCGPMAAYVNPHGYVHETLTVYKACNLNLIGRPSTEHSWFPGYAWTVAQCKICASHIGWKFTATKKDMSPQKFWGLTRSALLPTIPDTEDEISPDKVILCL
T1 sequence (Q16531 whole entry partner): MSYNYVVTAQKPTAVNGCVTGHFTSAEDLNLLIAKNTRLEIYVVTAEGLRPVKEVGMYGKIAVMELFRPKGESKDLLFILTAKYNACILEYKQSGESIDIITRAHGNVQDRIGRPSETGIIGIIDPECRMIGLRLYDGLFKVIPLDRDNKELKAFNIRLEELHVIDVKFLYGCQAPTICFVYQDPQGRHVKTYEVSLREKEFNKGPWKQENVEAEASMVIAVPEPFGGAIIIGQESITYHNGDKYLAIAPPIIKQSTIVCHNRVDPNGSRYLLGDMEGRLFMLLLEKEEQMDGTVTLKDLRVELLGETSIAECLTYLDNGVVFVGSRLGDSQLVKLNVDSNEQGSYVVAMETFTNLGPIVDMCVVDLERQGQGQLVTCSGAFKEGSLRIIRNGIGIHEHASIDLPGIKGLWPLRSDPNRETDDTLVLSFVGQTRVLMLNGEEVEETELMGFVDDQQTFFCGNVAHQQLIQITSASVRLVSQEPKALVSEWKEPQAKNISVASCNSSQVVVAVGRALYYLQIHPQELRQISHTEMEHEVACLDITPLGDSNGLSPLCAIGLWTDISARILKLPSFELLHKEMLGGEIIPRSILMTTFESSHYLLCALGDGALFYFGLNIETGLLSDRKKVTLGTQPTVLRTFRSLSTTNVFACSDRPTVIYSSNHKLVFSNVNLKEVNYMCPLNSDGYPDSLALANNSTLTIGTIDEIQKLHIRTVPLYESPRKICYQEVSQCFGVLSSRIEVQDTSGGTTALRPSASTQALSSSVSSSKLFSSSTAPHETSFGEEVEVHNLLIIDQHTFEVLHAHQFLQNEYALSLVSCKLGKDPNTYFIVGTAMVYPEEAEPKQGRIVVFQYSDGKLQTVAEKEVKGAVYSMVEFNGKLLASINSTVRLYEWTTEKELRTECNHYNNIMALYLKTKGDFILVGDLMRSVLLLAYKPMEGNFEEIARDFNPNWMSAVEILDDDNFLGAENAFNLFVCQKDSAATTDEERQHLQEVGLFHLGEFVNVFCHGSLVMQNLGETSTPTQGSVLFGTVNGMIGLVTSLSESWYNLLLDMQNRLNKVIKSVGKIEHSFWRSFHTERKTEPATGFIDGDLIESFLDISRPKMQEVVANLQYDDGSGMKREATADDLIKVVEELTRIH

On to “1-((1-(1-((2-(2,6-dioxopiperidin-3-yl)-1,3-dioxoisoindolin-4-yl)glycyl)azetidin-3-yl)-1H-1,2, 3-triazol-4-yl)methyl)-N-(((2-((5-fluoro˜4-(4-fluoro-2-methoxyphenyl)pyridin-2-yl)amino)pyridin-4-yl)methyl)(methyl)(oxo)-16-sulfaneylidene)piperidine-3-carboxamide [Compound 4.63]”, for which the “Solubility” value in series [1] was 10.8 µM. Moreover, the “logk′80” value in series [2] is listed as 0.19. In addition, half-maximal degradation in series [3] (DC50) was put at 460 nM. The IC50 in series [4] (cytotoxicity) was 550 nM.
As for `COc1cc(F)ccc1-c1cc(Nc2cc(CS(C)(=N)=O)ccn2)ncc1F` (racemic) [Compound 4.16, ((2-((5-fluoro-4-(4-fluoro-2-methoxyphenyl)pyridin-2-yl)amino)pyridin-4-yl)methyl)(imino)(methyl)4-sulfa-none, reference compound], the solubility at 1.5 h in series [1] (setting [6]) was 403 µM (≈ 163 µg/mL). In series [2], the “logk′80” value turned out to be 0.15. Also, the IC50 in series [4] (setting [7]) was determined as 60 nM.
On to `O=C(NC1CCNCC1)c1n[nH]cc1NC(=O)c1c(Cl)cccc1Cl` [AT7519, 4-(2,6-dichlorobenzamido)-N-(piperidin-4-yl)-1H-pyrazole-3-carboxamide, reference compound], for which the EC50 in series [5] (Table 1, cytotoxicity MV411 cells) amounted to 200 nM. Also, the IC50 in series [5] (defined as log(nM IC50), MV411, read-out: pIC50 (converted)) is 126 nM; in series [5] (growth inhibition, MV411 cells, MTS, read-out: IC50) it was 119 nM.
`COc1cc(F)ccc1-c1cc(Nc2cc(CS(C)(=O)=NC(=O)CCCCc3cn(CCCOc4cccc5c4C(=O)N(C4CCC(=O)NC4=O)C5=O)nn3)ccn2)ncc1F` (stereo not shown) [Compound 4.31, 5-(1-(3-((2-(2,6-dioxopiperidin-3-yl)-1,3-dioxoisoindolin-4-yl)oxy)propyl)-1H-1,2,3-triazol-4-yl)-N-(((2-((5-fluoro-4-(4-fluoro-2-methoxyphenyl)pyridin-2-yl)amino)pyridin-4-yl)methyl)(methyl)(oxo)-16-sulfaneylidene)pentanamide] yielded a solubility at 1.5 h in series [1] (setting [6]) of less than 5 µM. In addition, in series [2], the “logk′80” value was 0.17. Further, the IC50 in series [4] (setting [7]) was 170 nM.
For the compound `COc1cc(F)ccc1-c1cc(Nc2cc(CS(C)(=O)=NC(=O)CCCCCCCCCCNC(=O)CNc3cccc4c3C(=O)N(C3CCC(=O)NC3=O)C4=O)ccn2)ncc1F` (stereo not shown) [Compound 4.32, 11-(2-((2-(2,6-dioxopiperidin-3-yl)-1,3-dioxoisoindolin-4-yl)amino)acetamido)-N-(((2-((5-fluoro-4-(4-fluoro-2-methoxyphenyl)pyridin-2-yl)amino)pyridin-4-yl)methyl)(methyl)(oxo)-16-sulfaneylidene)undecanamide], the “logk′80” value in series [2] came to 0.28. Half-maximal degradation in series [3] (DC50) was put at 120 nM. Besides, the IC50 in series [4] (setting [7]) is 140 nM.
On the same counts, the results for `COc1cc(F)ccc1-c1cc(Nc2cc(CS(C)(=O)=NC(=O)CCc3cn(CCCOc4cccc5c4C(=O)N(C4CCC(=O)NC4=O)C5=O)nn3)ccn2)ncc1F` (stereo not shown) [Compound 4.33, 3-(1-(3-((2-(2,6-dioxopiperidin-3-yl)-1,3-dioxoisoindolin-4-yl)oxy)propyl)-1H-1,2,3-triazol-4-yl)-N-(((2-((5-fluoro-4-(4-fluoro-2-methoxyphenyl)pyridin-2-yl)amino)pyridin-4-yl)methyl)(methyl)(oxo)-16-sulfaneylidene)propenamide] are 0.15, 170 nM and 190 nM.
On to `COc1cc(F)ccc1-c1cc(Nc2cc(CS(C)(=O)=NC(=O)CN3CCN(Cc4cn(C5CN(c6cccc7c6C(=O)N(C6CCC(=O)NC6=O)C7=O)C5)nn4)CC3)ccn2)ncc1F` (stereo not shown) [Compound 4.50, 2-(4-((1-(1-(2-(2,6-dioxopiperidin-3-yl)-1,3-dioxoisoindolin-4-yl)azetidin-3-yl)-11H-1,2,3-triazol-4-yl)methyl)piperazin-1-yl)-N-(((2-((5-fluoro-4-(4-fluoro-2-methoxyphenyl)pyridin-2-yl)amino)pyridin-4-yl)methyl)(methyl)(oxo)-16-sulfaneylidene)acetamide], for which, in series [1], the “Solubility” value came to 13.9 µM (≈ 12.8 µg/mL). In addition, the solubility at 1.5 h in series [1] (setting [6]) is roughly 15 µM (≈ 13.8 µg/mL). In series [3], it took 930 nM to reach half-maximal degradation (DC50). For the same compound, the IC50 in series [4] (setting [7]) was 1540 nM.
Compound `COc1cc(F)ccc1-c1cc(Nc2cc(CS(C)(=O)=NC(=O)CN3CCC(c4cn(CC(=O)N5CCN(CC#Cc6cccc7c6C(=O)N(C6CCC(=O)NC6=O)C7=O)CC5)nn4)CC3)ccn2)ncc1F` (stereo not shown) [Compound 4.61, 2-(4-(1-(2-(4-(3-(2-(2,6-dioxopiperidin-3-yl)-1,3-dioxoisoindolin-4-yl)prop-2-yn-1-yl)piperazin-1-yl)-2-oxoethyl)-1H-1,2,3-triazol-4-yl)piperidin-1-yl)-N-(((2-((5-fluoro-4-(4-fluoro-2-methoxyphenyl)pyridin-2-yl)amino)pyridin-4-yl)methyl)(methyl)(oxo)-16-sulfaneylidene)acetamide] registered a solubility at 1.5 h in series [1] (setting [6]) of 1.8 µM (≈ 1.83 µg/mL). Moreover, in series [3], the DC50 was 170 nM. Besides, the IC50 in series [4] (setting [7]) amounted to 340 nM.
For `COc1cc(F)ccc1-c1cc(Nc2cc(CS(C)(=O)=NC(=O)C3CCCN(Cc4cn(CC(=O)N5CCN(CCCc6cccc7c6C(=O)N(C6CCC(=O)NC6=O)C7=O)CC5)nn4)C3)ccn2)ncc1F` (stereo not shown) [Compound 4.74, 1-({1-[2-(4-{3-[2-(2,6-dioxopiperidin-3-yl)-1,3-dioxo-2,3-dihydro-1H-isoindol-4-yl]propyl}piperazin-1-yl)-2-oxoethyl]-1H-1,2,3-triazol-4-yl}methyl)-N-{[(2-{[5-fluoro-4-(4-fluoro-2-methoxyphenyl)pyridin-2-yl]amino}pyridin-4-yl)methyl](methyl)oxo-λ^6-sulfanylidene}piperidine-3-carboxamide], the “logk′80” value in series [2] was determined as 0.15.
`COc1cc(F)ccc1-c1cc(Nc2cc(CS(C)(=O)=NC(=O)C3CCCN(Cc4cn(CC5CCN(c6cccc7c6C(=O)N(C6CCC(=O)NC6=O)C7=O)CC5)nn4)C3)ccn2)ncc1F` (stereo not shown) [Compound 4.77, 1˜ {[1-({1-[2-(2,6-dioxopiperidin-3-yl)-1,3-dioxo-2,3-dihydro-1H-isoindol-4-yl]piperidin-4-yl}methyl)-1H-1,2,3-triazol-4-yl]methyl}-N-{[(2-{[5-fluoro-4-(4-fluoro-2-methoxyphenyl)pyridin-2-yl]amino}pyridin-4-yl)methyl](methyl)oxo-λ^6-sulfanylidene}piperidine-3-carboxamide] yielded a solubility at 1.5 h in series [1] (setting [6]) of 8.9 µM (≈ 8.46 µg/mL). Besides, the DC50 in series [3] is 260 nM. In addition, the IC50 in series [4] (setting [7]) is 640 nM.
For `COc1cc(F)ccc1-c1cc(Nc2cc(CS(C)(=O)=NC(=O)CN3CCC(N4CCC(C#Cc5ccc6c(c5)CN(C5CCC(=O)NC5=O)C6=O)CC4)CC3)ccn2)ncc1F` (stereo not shown) [Compound 4.103, 2-(4-{2-[2-(2,6-dioxopiperidin-3-yl)-1-oxo-2,3-dihydro-1H-isoindol-5-yl]ethynyl}-[1,4′-bipiperidin]-1′-yl)-N-{[(2-{[5-fluoro-4-(4-fluoro-2-methoxyphenyl)pyridin-2-yl]amino}pyridin-4-yl)methyl](methyl)oxo-26-sulfanylidene}acetamide], the “Solubility” value in series [1] was 29 µM and 29.1 µM. Moreover, in series [2], the “logk′80” value turned out to be 0.15. For the same compound, in series [4] (cytotoxicity), the IC50 amounted to 120 nM.
For the compound `COc1cc(F)ccc1-c1cc(Nc2cc(CS(C)(=O)=NC(=O)CN3CCC(N4CCN(CC#Cc5ccc6c(c5)CN(C5CCC(=O)NC5=O)C6=O)CC4)CC3)ccn2)ncc1F` (stereo not shown) [Compound 4.104, 2-[4-(4-{3-[2-(2,6-dioxopiperidin-3-yl)-1-oxo-2,3-dihydro-1H-isoindol-5-yl]prop-2-yn-1-yl}piperazin-1-yl)piperidin-1-yl]-N-{[(2-{[5-fluoro-4-(4-fluoro-2-methoxyphenyl)pyridin-2-yl]amino}pyridin-4-yl)methyl](methyl)oxo-16-sulfanylidene}acetamide], in series [1] (setting [6]), the solubility (kinetic) at 1.5 h is greater than 50 µM and the solubility at 1.5 h was 51.6 µM (≈ 46.1 µg/mL). In addition, in series [4] (setting [7]), the IC50 was greater than 1000 nM. Further, the IC50 in series [4] (cytotoxicity) stood at 1100 nM.
